According to ChEMBL document CHEMBL4382242, “Novel racemosin B derivatives as new therapeutic agents for aggressive breast cancer” (Bioorg Med Chem, 2018):
Blank lines part the entries; values can stand above or below the compound they belong to. Active and inactive are the calls of the source. The rule behind the calls is not given here.

Key:
MCF7 = assay: Growth inhibition of human MCF7 cells after 72 hrs by MTT assay; type: functional, cell-based; details: MCF7, 72 h
MDA-MB-231 [1] = assay: Growth inhibition of human MDA-MB-231 cells after 72 hrs by MTT assay; type: functional, cell-based; details: MDA-MB-231, 72 h
MDA-MB-231 [2] = assay: Cell cycle arrest in human MDA-MB-231 cells assessed as accumulation at S phase at 5 uM after 24 hrs by propidium iodide staining based flow cytometry (reference value: 29.76%); type: functional
MDA-MB-231 [3] = assay: Cell cycle arrest in human MDA-MB-231 cells assessed as accumulation at G2/M phase at 5 uM after 24 hrs by propidium iodide staining based flow cytometry (reference value: 18.5%); type: functional
MDA-MB-231 [4] = assay: Induction of apoptosis in human MDA-MB-231 cells assessed as necrotic cells at 5 uM after 48 hrs by Annexin V-FITC/propidium iodide staining based flow cytometry (reference value: 0.7%); type: functional
K562 = assay: Growth inhibition of human K562 cells after 72 hrs by MTT assay; type: functional, cell-based; details: K562, 72 h
[5] = Growth inhibition of human WM9 cells after 72 hrs by MTT assay; type: functional; details: WM9, 72 h
MDA-MB-231 [6] = assay: Induction of apoptosis in human MDA-MB-231 cells assessed as decrease in Bcl2 protein expression at 5 uM after 16 hrs by Western blot analysis; type: functional, cell-based
MDA-MB-231 [7] = assay: Inhibition of autophagy in human MDA-MB-231 cells assessed as increase in p62 protein expression at 5 uM after 16 hrs by Western blot analysis; type: functional, cell-based
MDA-MB-231 [8] = assay: Induction of apoptosis in human MDA-MB-231 cells assessed as early apoptotic cells at 5 uM after 48 hrs by Annexin V-FITC/propidium iodide staining based flow cytometry (reference value: 5.3%); type: functional
MDA-MB-231 [9] = assay: Cell cycle arrest in human MDA-MB-231 cells assessed as accumulation at G2/M phase at 5 uM after 48 hrs by propidium iodide staining based flow cytometry (reference value: 17.79%); type: functional
[10] = Growth inhibition of human WM35 cells after 72 hrs by MTT assay; type: functional; details: WM35, 72 h
4T1 = assay: Growth inhibition of mouse 4T1 cells after 72 hrs by MTT assay; type: functional, cell-based; details: 4T1, 72 h
MDA-MB-231 [11] = assay: Cell cycle arrest in human MDA-MB-231 cells assessed as accumulation at G1 phase at 5 uM after 24 hrs by propidium iodide staining based flow cytometry (reference value: 47.9%); type: functional
[12] = biological target: Serine/threonine-protein kinase mTOR (Homo sapiens) (UniProt P42345); assay: Inhibition of mTOR phosphorylation in human MDA-MB-231 cells at 5 uM after 16 hrs by Western blot analysis; type: cell-based
MDA-MB-231 [13] = assay: Cell cycle arrest in human MDA-MB-231 cells assessed as accumulation at G1 phase at 5 uM after 48 hrs by propidium iodide staining based flow cytometry (reference value: 3.19%); type: functional
MDA-MB-231 [14] = assay: Induction of apoptosis in human MDA-MB-231 cells assessed as live cells at 5 uM after 48 hrs by Annexin V-FITC/propidium iodide staining based flow cytometry (reference value: 87.6%); type: functional
MDA-MB-231 [15] = assay: Induction of apoptosis in human MDA-MB-231 cells assessed as early apoptotic cells at 5 uM after 24 hrs by Annexin V-FITC/propidium iodide staining based flow cytometry (reference value: 3.7%); type: functional
MDA-MB-231 [16] = assay: Induction of morphological changes in human MDA-MB-231 cells assessed as cell detachment at 5 uM after 24 hrs; type: functional, cell-based
HEL = assay: Growth inhibition of HEL cells after 72 hrs by MTT assay; type: functional, cell-based; details: Homo sapiens
MDA-MB-231 [17] = assay: Induction of apoptosis in human MDA-MB-231 cells assessed as increase in Bax protein expression at 5 uM after 16 hrs by Western blot analysis; type: functional, cell-based
MDA-MB-231 [18] = assay: Induction of apoptosis in human MDA-MB-231 cells assessed as increase in Cyclin-B1 protein expression at 5 uM after 16 hrs by Western blot analysis; type: functional, cell-based
MDA-MB-231 [19] = assay: Cell cycle arrest in human MDA-MB-231 cells assessed as accumulation at S phase at 5 uM after 48 hrs by propidium iodide staining based flow cytometry (reference value: 31.71%); type: functional
MDA-MB-231 [20] = assay: Induction of apoptosis in human MDA-MB-231 cells assessed as late apoptotic cells at 5 uM after 48 hrs by Annexin V-FITC/propidium iodide staining based flow cytometry (reference value: 6.5%); type: functional
MDA-MB-231 [21] = assay: Growth inhibition of human MDA-MB-231 cells at 1 to 5 uM after 72 hrs by MTT assay; type: functional, cell-based
MDA-MB-231 [22] = assay: Induction of apoptosis in human MDA-MB-231 cells assessed as necrotic cells at 5 uM after 24 hrs by Annexin V-FITC/propidium iodide staining based flow cytometry (reference value: 0.7%); type: functional
MDA-MB-231 [23] = assay: Induction of apoptosis in human MDA-MB-231 cells assessed as late apoptotic cells at 5 uM after 24 hrs by Annexin V-FITC/propidium iodide staining based flow cytometry (reference value: 4.8%); type: functional
MDA-MB-231 [24] = assay: Induction of apoptosis in human MDA-MB-231 cells assessed as live cells at 5 uM after 24 hrs by Annexin V-FITC/propidium iodide staining based flow cytometry (reference value: 90.8%); type: functional
MDA-MB-231 [25] = assay: Inhibition of autophagy in human MDA-MB-231 cells assessed as LC3-2 accumulation at 5 uM after 16 hrs by DAPI staining based immunofluorescence assay; type: functional, cell-based

SMILES: COC(=O)c1cc2c3ccccc3[nH]c2c2c1[nH]c1ccc(OC)cc12
IC50 (MCF7): > 40 µM | IC50 (MDA-MB-231 [1]): > 40 µM

SMILES: O=C(NCCN1CCOCC1)c1cc2c3ccccc3[nH]c2c2c1[nH]c1ccccc12
IC50 (MCF7): 7.76 µM | IC50 (MDA-MB-231 [1]): 4.4 µM

SMILES: CN(C)CCN(C)C(=O)c1cc2c3ccccc3[nH]c2c2c1[nH]c1ccccc12
IC50 (MCF7): 6.3 µM | IC50 (MDA-MB-231 [1]): 2.93 µM

SMILES: O=C(NCCN1CCCC1)c1cc2c3ccccc3[nH]c2c2c1[nH]c1cc(Cl)ccc12
IC50 (MCF7): 8.4 µM | IC50 (MDA-MB-231 [1]): 5.7 µM

SMILES: O=C(NCc1ccncc1)c1cc2c3ccccc3[nH]c2c2c1[nH]c1ccccc12
IC50 (MCF7): 8.08 µM | IC50 (MDA-MB-231 [1]): 5.64 µM

SMILES: CN(C)CCNC(=O)c1cc2c3ccccc3[nH]c2c2c1[nH]c1cc(Cl)ccc12
IC50 (MCF7): 8.03 µM | IC50 (MDA-MB-231 [1]): 4.51 µM

SMILES: COc1cc([C@@H]2c3cc4c(cc3[C@@H](O[C@@H]3O[C@@H]5CO[C@@H](C)O[C@H]5[C@H](O)[C@H]3O)[C@H]3COC(=O)[C@H]23)OCO4)cc(OC)c1O [ETOPOSIDE]
Activity (MDA-MB-231 [2]): 19.24% | IC50 (MCF7): > 10 µM | Activity (MDA-MB-231 [3]): 63.98% | Activity (MDA-MB-231 [4]): 10.1% | IC50 (K562): 9.23 µM | IC50 [5]: 1.75 µM | Activity (MDA-MB-231 [6]): Active | inhibition (MDA-MB-231 [7]): inactive | Activity (MDA-MB-231 [8]): 5.5% | Activity (MDA-MB-231 [9]): 70.43% | IC50 [10]: 0.4 µM | IC50 (MDA-MB-231 [1]): > 10 µM | IC50 (4T1): > 10 µM | Activity (MDA-MB-231 [11]): 7.59% | inhibition [12]: inactive | Activity (MDA-MB-231 [13]): 8.57% | Activity (MDA-MB-231 [14]): 75.5% | Activity (MDA-MB-231 [15]): 4.6% | Activity (MDA-MB-231 [16]): Active | IC50 (HEL): 0.92 µM | Activity (MDA-MB-231 [17]): Active | Activity (MDA-MB-231 [18]): Active | Activity (MDA-MB-231 [19]): 15.48% | Activity (MDA-MB-231 [20]): 8.8% | growth inhibition (GI) (MDA-MB-231 [21]): Active | Activity (MDA-MB-231 [22]): 0.7% | Activity (MDA-MB-231 [23]): 4% | Activity (MDA-MB-231 [24]): 90.7% | inhibition (MDA-MB-231 [25]): inactive

These reach a lower IC50 (MCF7). Values come first.

IC50 (MCF7): 3.11 µM | IC50 (MDA-MB-231 [1]): 1.41 µM
SMILES: O=C(NCCN1CCCC1)c1cc2c3ccccc3[nH]c2c2c1[nH]c1ccccc12

IC50 (MCF7): 1.3 µM | IC50 (MDA-MB-231 [1]): 1.82 µM
SMILES: O=C(NCCN1CCCC1)c1cc2c3ccccc3[nH]c2c2c1[nH]c1ccc(Br)cc12

IC50 (MCF7): 4.86 µM | IC50 (MDA-MB-231 [1]): 4.16 µM
SMILES: O=C(NCCc1c[nH]cn1)c1cc2c3ccccc3[nH]c2c2c1[nH]c1ccccc12

IC50 (MCF7): 4.85 µM | IC50 (MDA-MB-231 [1]): 2.05 µM
SMILES: O=C(NCCNCCO)c1cc2c3ccccc3[nH]c2c2c1[nH]c1ccccc12

IC50 (MCF7): 3.39 µM | IC50 (MDA-MB-231 [1]): 1.43 µM
SMILES: CN(C)CCNC(=O)c1cc2c3ccccc3[nH]c2c2c1[nH]c1ccccc12

IC50 (MCF7): 0.42 µM | IC50 (MDA-MB-231 [1]): 0.25 µM
SMILES: COc1cccc2c1C(=O)c1c(O)c3c(c(O)c1C2=O)C[C@@](O)(C(=O)CO)C[C@@H]3O[C@H]1C[C@H](N)[C@H](O)[C@H](C)O1 [DOXORUBICIN]

IC50 (MCF7): 5.58 µM | IC50 (MDA-MB-231 [1]): 2.84 µM
SMILES: COc1ccc2[nH]c3c(C(=O)NCCN4CCCC4)cc4c5ccccc5[nH]c4c3c2c1

IC50 (MCF7): 5.33 µM | IC50 (MDA-MB-231 [1]): 2.1 µM
SMILES: CN1CCN(CCNC(=O)c2cc3c4ccccc4[nH]c3c3c2[nH]c2ccccc23)CC1
